Data: PubChem BioAssay AID1259411 (Chemical Carcinogenesis Research Information System (CCRIS), 2018)
The source made the active and inactive calls. No rule for the calls is given here.

Tested on: rodent carcinogenicity bioassays, tumor incidence
Test: CCRIS carcinogenicity studies
Outline: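 NCI-built, expert-reviewed records of carcinogenicity and related test outcomes (mutagenicity, tumor promotion/inhibition) compiled from published and report sources, historical span 1985-2011, not updated.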

Structure (SMILES): C=COc1ccc([N+](=O)[O-])cc1
- carcinogen call (Species: MOUSE, Strain/Sex: B6C3F1/MALE, Route: INTRAPERITONEAL, Dose: 0, 60, 300 NMOL/G BW IN 10 µL TRIOCTANOIN ONCE (STUDY DURATION: 10 MO), Dose: 0, 60, 300 NMOL/G BW IN 10 µL TRIOCTANOIN ONCE (STUDY DURATION: 10 MO), Tumor Site: Type of Lesion: LIVER: HEPATOMA): active; positive

Structure (SMILES): CCOP(=S)(OCC)SC1OCCOC1SP(=S)(OCC)OCC (stereo unspecified)
- carcinogen call (Species: MOUSE, Strain/Sex: B6C3F1/FEMALE, Route: ORAL, Dose: 0, 467, 935 PPM IN DIET, TWA, Dose: 0, 467, 935 PPM IN DIET, TWA): inactive; negative
- carcinogen call (Species: MOUSE, Strain/Sex: B6C3F1/MALE, Route: ORAL, Dose: 0, 284, 567 PPM IN DIET, TWA, Dose: 0, 284, 567 PPM IN DIET, TWA): inactive; negative
- carcinogen call (Species: RAT, Strain/Sex: OSBORNE-MENDEL/FEMALE, Route: ORAL, Dose: 0, 45, 90 PPM IN DIET, TWA, Dose: 0, 45, 90 PPM IN DIET, TWA): inactive; negative
- carcinogen call (Species: RAT, Strain/Sex: OSBORNE-MENDEL/MALE, Route: ORAL, Dose: 0, 90, 180 PPM IN DIET, TWA, Dose: 0, 90, 180 PPM IN DIET, TWA): inactive; negative

Structure (SMILES): O[C@@H]1C=CC=C[C@H]1O
- carcinogen call (Species: MOUSE, Strain/Sex: SWISS/FEMALE, Route: INTRAPERITONEAL, Dose: 0, 10, 50 UMOL ADMINISTERED AS 3 UNEQUAL DOSES (1/7, 2/7, AND 4/7 OF THE TOTAL DOSE) OVER A 2-WK PERIOD (STUDY DURATION:, Dose: 0, 10, 50 UMOL ADMINISTERED AS 3 UNEQUAL DOSES (1/7, 2/7, AND 4/7 OF THE TOTAL DOSE) OVER A 2-WK PERIOD (STUDY DURATION:): inactive; negative
- carcinogen call (Species: MOUSE, Strain/Sex: SWISS/MALE, Route: INTRAPERITONEAL, Dose: 0, 10, 50 UMOL ADMINISTERED AS 3 UNEQUAL DOSES (1/7, 2/7, AND 4/7 OF THE TOTAL DOSE) OVER A 2-WK PERIOD (STUDY DURATION:, Dose: 0, 10, 50 UMOL ADMINISTERED AS 3 UNEQUAL DOSES (1/7, 2/7, AND 4/7 OF THE TOTAL DOSE) OVER A 2-WK PERIOD (STUDY DURATION:): inactive; negative

Structure (SMILES): NC(=O)Cc1c([O-])on[n+]1Cc1ccccc1
- carcinogen call (Species: MOUSE, Strain/Sex: DDD/FEMALE, Route: ORAL, Dose: 0, 0.002, 0.01, 0.02% IN DRINKING WATER FOR 12 MO (STUDY DURATION: 12 MO), Dose: 0, 0.002, 0.01, 0.02% IN DRINKING WATER FOR 12 MO (STUDY DURATION: 12 MO), Tumor Site: Type of Lesion: LIVER: HEPATOCELLULAR CARCINOMA): active; positive
- carcinogen call (Species: MOUSE, Strain/Sex: DDD/MALE, Route: ORAL, Dose: 0, 0.02% IN DRINKING WATER FOR 12 MO (STUDY DURATION: 12 MO)): inactive; negative
- carcinogen call (Species: RAT, Strain/Sex: DONRYU/FEMALE, Route: ORAL, Dose: 0, 60, 200, 400 PPM IN DRINKING WATER FOR 41 WK (STUDY DURATION: 104 WK), Dose: 0, 60, 200, 400 PPM IN DRINKING WATER FOR 41 WK (STUDY DURATION: 104 WK), Tumor Site: Type of Lesion: LIVER: TUMOR): active; positive
- carcinogen call (Species: RAT, Strain/Sex: DONRYU/MALE, Route: ORAL, Dose: 0, 20 PPM IN DIET FOR 104 WK (STUDY DURATION: 104 WK)): inactive; negative
- carcinogen call (Species: RAT, Strain/Sex: DONRYU/MALE, Route: ORAL, Dose: 0, 60, 200 PPM IN DIET FOR 15 WK (STUDY DURATION: 104 WK), Dose: 0, 60, 200 PPM IN DIET FOR 15 WK (STUDY DURATION: 104 WK), Tumor Site: Type of Lesion: LIVER: TUMOR): active; positive
- carcinogen call (Species: RAT, Strain/Sex: DONRYU/MALE, Route: ORAL, Dose: 0, 60 PPM IN DRINKING WATER FOR 41 WK (STUDY DURATION: 104 WK), Tumor Site: Type of Lesion: LIVER: TUMOR): active; positive

Structure (SMILES): C=CBr
- carcinogen call (Species: RAT, Strain/Sex: SPRAGUE-DAWLEY/FEMALE, Route: INHALATION, Dose: 10, 50, 250, 1250 PPM 6 HR/D 5/WK FOR 24 MO, Dose: 10, 50, 250, 1250 PPM 6 HR/D 5/WK FOR 24 MO, Tumor Site: Type of Lesion: LIVER: ANGIOSARCOMA, EAR (ZYMBAL GLAND): SQUAMOUS CELL CARCINOMA): active; positive
- carcinogen call (Species: RAT, Strain/Sex: SPRAGUE-DAWLEY/MALE, Route: INHALATION, Dose: 10, 50, 250, 1250 PPM 6 HR/D 5/WK FOR 24 MO, Dose: 10, 50, 250, 1250 PPM 6 HR/D 5/WK FOR 24 MO, Tumor Site: Type of Lesion: LIVER: ANGIOSARCOMA, EAR (ZYMBAL GLAND): PAPILLOMA, SQUAMOUS CELL CARCINOMA): active; positive

Structure (SMILES): CCOC(=O)N(C)N=O
- carcinogen call (Species: MOUSE, Route: INTRAPERITONEAL, Tumor Site: Type of Lesion: LUNG): active; positive
- carcinogen call (Species: MOUSE, Route: ORAL, Tumor Site: Type of Lesion: ESOPHAGUS, FORESTOMACH): active; positive
- carcinogen call (Species: RAT, Route: INTRAVENOUS, Tumor Site: Type of Lesion: LUNG): active; positive
- carcinogen call (Species: RAT, Route: ORAL, Tumor Site: Type of Lesion: FORESTOMACH): active; positive
- carcinogen call (Species: RAT, Strain/Sex: F344/FEMALE, Route: GAVAGE, Dose: 0, 0.35, 1.4 MG/ANIMAL IN CORN OIL 1/WK FOR 20 WK (STUDY DURATION: 114 WK), Dose: 0, 0.35, 1.4 MG/ANIMAL IN CORN OIL 1/WK FOR 20 WK (STUDY DURATION: 114 WK), Tumor Site: Type of Lesion: FORESTOMACH: CARCINOMA, ESOPHAGUS: CARCINOMA, PAPILLOMA): active; positive
- carcinogen call (Species: RAT, Strain/Sex: F344/MALE, Route: ORAL, Dose: 20 PPM IN DRINKING WATER FOR 48 WK (STUDY DURATION: 104 WK), Tumor Site: Type of Lesion: FORESTOMACH: PAPILLOMA, SQUAMOUS CELL CARCINOMA): active; positive

Structure (SMILES): COc1cc(C(C)(C)C)c(O)c(C(C)(C)C)c1
- carcinogen call (Species: HAMSTER, Strain/Sex: SYRIAN/MALE, Route: ORAL, Dose: 1% IN DIET FOR 24 WK (STUDY DURATION: 24 WK)): inactive; negative

Structure (SMILES): COC(=O)N/N=C/c1c[n+]([O-])c2ccccc2[n+]1[O-]
- carcinogen call (Species: RAT, Strain/Sex: WISTAR/FEMALE, Route: ORAL, Dose: 0, 50, 100, 250, 500 PPM IN DIET FOR 12 MO (STUDY DURATION: 12 MO), Dose: 0, 50, 100, 250, 500 PPM IN DIET FOR 12 MO (STUDY DURATION: 12 MO), Tumor Site: Type of Lesion: LIVER: HEPATOCELLULAR CARCINOMA): active; positive
- carcinogen call (Species: RAT, Strain/Sex: WISTAR/MALE, Route: ORAL, Dose: 0, 50, 100, 250, 500 PPM IN DIET FOR 12 MO (STUDY DURATION: 12 MO), Dose: 0, 50, 100, 250, 500 PPM IN DIET FOR 12 MO (STUDY DURATION: 12 MO), Tumor Site: Type of Lesion: LIVER: HEPATOCELLULAR CARCINOMA): active; positive

Structure (SMILES): Cc1ncc([N+](=O)[O-])n1CCO
- carcinogen call (Species: MOUSE, Route: ORAL, Tumor Site: Type of Lesion: LUNG, LYMPHATIC SYSTEM: LYMPHOMA (NOS)): active; positive
- carcinogen call (Species: RAT, Route: ORAL, Tumor Site: Type of Lesion: MAMMARY GLAND): active; positive

Structure (SMILES): C#C[C@]1(O)CC[C@H]2[C@@H]3CCc4cc(O)ccc4[C@H]3[C@@H](OC)C[C@@]21C
- carcinogen call (Species: HAMSTER, Strain/Sex: SYRIAN/MALE, Route: SUBCUTANEOUS IMPLANT, Dose: 0, 20 MG IN PELLETS IMPLANTED EVERY 2.5 MO FOR 9 MO (STUDY DURATION: 9 MO), Tumor Site: Type of Lesion: KIDNEY: TUMOR): active; positive

Structure (SMILES): CCCCCl
- carcinogen call (Species: MOUSE, Strain/Sex: B6C3F1/FEMALE, Route: GAVAGE, Dose: 0, 250, 500 MG/KG IN CORN OIL 5 D/WK FOR 103 WK, Dose: 0, 250, 500 MG/KG IN CORN OIL 5 D/WK FOR 103 WK): inactive; negative
- carcinogen call (Species: MOUSE, Strain/Sex: B6C3F1/MALE, Route: GAVAGE, Dose: 0, 500, 1000 MG/KG IN CORN OIL 5 D/WK FOR 103 WK, Dose: 0, 500, 1000 MG/KG IN CORN OIL 5 D/WK FOR 103 WK): inactive; negative
- carcinogen call (Species: RAT, Strain/Sex: F344/FEMALE, Route: GAVAGE, Dose: 0, 60, 120 MG/KG IN CORN OIL 5 D/WK FOR 103 WK, Dose: 0, 60, 120 MG/KG IN CORN OIL 5 D/WK FOR 103 WK): inactive; negative
- carcinogen call (Species: RAT, Strain/Sex: F344/MALE, Route: GAVAGE, Dose: 0, 60, 120 MG/KG IN CORN OIL 5 D/WK FOR 103 WK, Dose: 0, 60, 120 MG/KG IN CORN OIL 5 D/WK FOR 103 WK): inactive; negative
